Laboratory results: the supplement of paper PMC10331698
± gives the standard deviation of the averaged measurements.

Legend:
Assay in all cases: level (log10 ratio to DMSO vehicle control); higher = higher biomarker level / cell amount than vehicle control
[1] = compound: O=S(=O)(Cl)C(F)(F)C(F)(F)C(F)(F)C(F)(F)C(F)(F)C(F)(F)C(F)(F)C(F)(F)F [Perfluoro-1-octanesulfonyl chloride]; details: in DMSO
Experimental: (§1)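 BioMAP Diversity Plus panel of 12 human primary cell co-culture systems (3C, 4H, LPS, SAg, BT, BF4T, BE3C, CASM3C, HDF3CGF, KF3CT, MyoF, Mphg). Compounds were added 1 h before stimulation and left for 24 h (MyoF 48 h; BT 72 h for soluble read-outs or 6 d for IgG). Biomarkers were read by ELISA, cytotoxicity by SRB, PBMC viability and proliferation by Alamar Blue. Each well value was divided by the mean of 8 DMSO control wells on the same plate and log10 transformed; duplicate blinded samples were tested at 4 concentrations.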

[2] = compound: O=C(O)C(F)(F)C(F)(F)C(F)(F)C(F)(F)C(F)(F)C(F)(F)C(F)(F)C(F)(F)C(F)(F)C(F)F [11-H-Perfluoroundecanoic acid]; details: in DMSO
Experimental: as §1

Hexafluoroamylene glycol = compound: OCC(F)(F)C(F)(F)C(F)(F)CO [Hexafluoroamylene glycol]; details: in DMSO
Experimental: as §1

[3] = compound: O=S(=O)(O)C(F)(F)C(F)(F)C(F)(F)C(F)(F)C(F)(F)C(F)(F)C(F)(F)C(F)(F)C(F)(F)C(F)(F)F [Sodium perfluorodecanesulfonate]; details: in DMSO
Experimental: as §1

[4] = compound: NS(=O)(=O)C(F)(F)C(F)(F)C(F)(F)C(F)(F)C(F)(F)C(F)(F)F [Perfluorohexanesulfonamide]; details: in DMSO
Experimental: as §1

[5] = compound: C=CC(=O)OCC(F)(F)C(F)(F)C(F)(F)COC(=O)C=C [1H,1H,5H,5H-Perfluoro-1,5-pentanediol diacrylate]; details: 6700 nM; in DMSO
Experimental: as §1

[6] = compound: FC(F)(F)C(F)(F)C(F)(F)C(F)(F)C(F)(F)C(F)(F)CC1CO1 [3-(Perfluorohexyl)-1,2-epoxypropane]; details: in DMSO
Experimental: as §1

[7] = compound: O=S(=O)(O)CCC(F)(F)C(F)(F)C(F)(F)C(F)(F)C(F)(F)C(F)(F)F [6:2 Fluorotelomer sulfonic acid]; details: in DMSO
Experimental: as §1

Nonafluoropentanamide = compound: NC(=O)C(F)(F)C(F)(F)C(F)(F)C(F)(F)F [Nonafluoropentanamide]; details: in DMSO
Experimental: as §1

[8] = compound: O=C(O)C=CC(F)(C(F)(F)F)C(F)(F)F [3-(Perfluoroisopropyl)-2-propenoic acid]; details: in DMSO
Experimental: as §1

Heptafluorobutyl iodide = compound: FC(F)(F)C(F)(F)C(F)(F)CI [Heptafluorobutyl iodide]; details: in DMSO
Experimental: as §1

Octafluoroadipamide = compound: NC(=O)C(F)(F)C(F)(F)C(F)(F)C(F)(F)C(N)=O [Octafluoroadipamide]; details: in DMSO
Experimental: as §1

[9] = compound: FC(F)(F)C(F)(F)C(F)(F)CC1CO1 [1H,1H-Heptafluorobutyl epoxide]; details: in DMSO
Experimental: as §1

[10] = compound: O=S(=O)(F)C(F)(F)C(F)(F)C(F)(F)C(F)(F)C(F)(F)C(F)(F)C(F)(F)C(F)(F)F [Perfluorooctanesulfonyl fluoride]; details: in DMSO
Experimental: as §1

[11] = compound: FC(F)(F)C(F)(F)C(F)(F)C(F)(F)C(F)(F)C(F)(F)C(F)(F)I [1-Iodopentadecafluoroheptane]; details: in DMSO
Experimental: as §1

[12] = compound: NC(=O)C(F)(F)C(F)(F)C(F)(F)C(F)F; details: in DMSO
Experimental: as §1

[13] = compound: COC(=O)C(F)(F)C(F)(F)OC(F)(C(F)(F)F)C(F)(F)OC(F)=C(F)F [Methyl perfluoro(3-(1-ethenyloxypropan-2-yloxy)propanoate)]; details: in DMSO
Experimental: as §1

[14] = compound: FC(F)(F)C(F)(F)CNCC(F)(F)C(F)(F)F [Bis(1H,1H-perfluoropropyl)amine]; details: in DMSO
Experimental: as §1

[15] = compound: C=C(C)C(=O)OCCC(F)(F)C(F)(F)C(F)(F)C(F)(F)C(F)(F)C(F)(F)F [6:2 Fluorotelomer methacrylate]; details: in DMSO
Experimental: as §1

BE3C:CXCL9/MIG
level (log10) ([1]; 6700 nM): -0.0025 ± 0.00071
level (log10) ([1]; 20000 nM): -0.004 ± 0.0042
level (log10) ([1]; 60000 nM): -0.724 ± 0.11
level (log10) ([2]; 6700 nM): -0.004 ± 0.0057
level (log10) ([2]; 20000 nM): -0.905 ± 0.047
level (log10) (Hexafluoroamylene glycol; 6700 nM): -0.003 ± 0.0085
level (log10) (Hexafluoroamylene glycol; 20000 nM): -0.0055 ± 0.0035
level (log10) (Hexafluoroamylene glycol; 60000 nM): 0.0025 ± 0.011
level (log10) ([3]; 1500 nM): 0.016 ± 0.0042
level (log10) ([3]; 4400 nM): 0.008 ± 0.0085
level (log10) ([3]; 13000 nM): 0.014 ± 0.0085
level (log10) ([3]; 40000 nM): 0.0005 ± 0.0092
level (log10) ([4]; 6700 nM): -0.0025 ± 0.0064
level (log10) ([4]; 20000 nM): -0.0005 ± 0.0078
level (log10) ([4]; 60000 nM): -0.0065 ± 0.0078
level (log10) [5]: 0.0095 ± 0.0021
level (log10) ([6]; 6700 nM): 0.0095 ± 0.018
level (log10) ([6]; 20000 nM): 0.0185 ± 0.016
level (log10) ([6]; 60000 nM): 0.023 ± 0.0057
level (log10) ([7]; 6700 nM): -0.005 ± 0.0014
level (log10) ([7]; 20000 nM): -0.004 ± 0.0042
level (log10) ([7]; 60000 nM): 0.0015 ± 0.011
level (log10) (Nonafluoropentanamide; 6700 nM): 0.015 ± 0.0071
level (log10) (Nonafluoropentanamide; 20000 nM): -0.001 ± 0.014
level (log10) (Nonafluoropentanamide; 60000 nM): 0.014
level (log10) ([8]; 6700 nM): 0.0135 ± 0.015
level (log10) ([8]; 20000 nM): 0.016 ± 0.017
level (log10) ([8]; 60000 nM): 0.0235 ± 0.013
level (log10) (Heptafluorobutyl iodide; 6700 nM): -0.002 ± 0.0099
level (log10) (Heptafluorobutyl iodide; 20000 nM): -0.002 ± 0.0014
level (log10) (Heptafluorobutyl iodide; 60000 nM): 0.0065 ± 0.018
level (log10) (Octafluoroadipamide; 6700 nM): -0.008
level (log10) (Octafluoroadipamide; 20000 nM): -0.007 ± 0.0057
level (log10) (Octafluoroadipamide; 60000 nM): 0.006 ± 0.0071
level (log10) ([9]; 6700 nM): -0.0125 ± 0.0064
level (log10) ([9]; 20000 nM): 0 ± 0.0028
level (log10) ([9]; 60000 nM): -0.0075 ± 0.0064
level (log10) ([10]; 6700 nM): 0.0035 ± 0.005
level (log10) ([10]; 20000 nM): -0.0025 ± 0.0064
level (log10) ([10]; 60000 nM): 0.007 ± 0.017
level (log10) ([11]; 6700 nM): -0.0035 ± 0.021
level (log10) ([11]; 20000 nM): 0.003 ± 0.013
level (log10) ([12]; 6700 nM): 0.012 ± 0.024
level (log10) ([12]; 20000 nM): 0.009 ± 0.0071
level (log10) ([12]; 60000 nM): 0.006 ± 0.0085
level (log10) ([13]; 6700 nM): -0.0035 ± 0.0035
level (log10) ([13]; 20000 nM): -0.019 ± 0.0099
level (log10) ([14]; 6700 nM): -0.0065 ± 0.0035
level (log10) ([14]; 20000 nM): -0.0055 ± 0.00071
level (log10) ([14]; 60000 nM): 0.005 ± 0.021
level (log10) ([15]; 6700 nM): 0.0055 ± 0.028
level (log10) ([15]; 20000 nM): 0.008 ± 0.035
level (log10) ([15]; 60000 nM): 0.015 ± 0.045

BE3C:Keratin 8/18
level (log10) ([1]; 6700 nM): -0.0025 ± 0.0021
level (log10) ([1]; 20000 nM): 0.003 ± 0.0028
level (log10) ([1]; 60000 nM): -0.106 ± 0.05
level (log10) ([2]; 6700 nM): -0.0125 ± 0.025
level (log10) ([2]; 20000 nM): -0.0805 ± 0.019
level (log10) (Hexafluoroamylene glycol; 6700 nM): 0.002 ± 0.018
level (log10) (Hexafluoroamylene glycol; 20000 nM): -0.0155 ± 0.013
level (log10) (Hexafluoroamylene glycol; 60000 nM): 0.002 ± 0.02
level (log10) ([3]; 1500 nM): 0.0095 ± 0.015
level (log10) ([3]; 4400 nM): 0.0065 ± 0.023
level (log10) ([3]; 13000 nM): -0.0345 ± 0.012
level (log10) ([3]; 40000 nM): -0.302 ± 0.0071
level (log10) ([4]; 6700 nM): 0.0065 ± 0.012
level (log10) ([4]; 20000 nM): 0.0055 ± 0.033
level (log10) ([4]; 60000 nM): -0.033 ± 0.025
level (log10) [5]: -0.0055 ± 0.044
level (log10) ([6]; 6700 nM): -0.0045 ± 0.00071
level (log10) ([6]; 20000 nM): -0.0115 ± 0.00071
level (log10) ([6]; 60000 nM): 0.0015 ± 0.018
level (log10) ([7]; 6700 nM): 0.001 ± 0.0071
level (log10) ([7]; 20000 nM): -0.0185 ± 0.00071
level (log10) ([7]; 60000 nM): -0.0085 ± 0.019
level (log10) (Nonafluoropentanamide; 6700 nM): -0.0245 ± 0.0064
level (log10) (Nonafluoropentanamide; 20000 nM): -0.035 ± 0.013
level (log10) (Nonafluoropentanamide; 60000 nM): -0.026 ± 0.0099
level (log10) ([8]; 6700 nM): 0.0015 ± 0.019
level (log10) ([8]; 20000 nM): -0.0065 ± 0.012
level (log10) ([8]; 60000 nM): 0.002 ± 0.0028
level (log10) (Heptafluorobutyl iodide; 6700 nM): 0.0025 ± 0.0078
level (log10) (Heptafluorobutyl iodide; 20000 nM): -0.0025 ± 0.00071
level (log10) (Heptafluorobutyl iodide; 60000 nM): 0.005 ± 0.013
level (log10) (Octafluoroadipamide; 6700 nM): -0.0115 ± 0.005
level (log10) (Octafluoroadipamide; 20000 nM): -0.0185 ± 0.0092
level (log10) (Octafluoroadipamide; 60000 nM): 0.0105 ± 0.043
level (log10) ([9]; 6700 nM): -0.0125 ± 0.011
level (log10) ([9]; 20000 nM): 0.019 ± 0.021
level (log10) ([9]; 60000 nM): 0.011 ± 0.047
level (log10) ([10]; 6700 nM): -0.012 ± 0.0014
level (log10) ([10]; 20000 nM): -0.01 ± 0.016
level (log10) ([10]; 60000 nM): -0.0105 ± 0.005
level (log10) ([11]; 6700 nM): -0.0075 ± 0.011
level (log10) ([11]; 20000 nM): -0.012
level (log10) ([12]; 6700 nM): -0.0045 ± 0.0092
level (log10) ([12]; 20000 nM): -0.0025 ± 0.005
level (log10) ([12]; 60000 nM): -0.0185 ± 0.033
level (log10) ([13]; 6700 nM): -0.0095 ± 0.049
level (log10) ([13]; 20000 nM): -0.004 ± 0.025
level (log10) ([14]; 6700 nM): -0.008 ± 0.0028
level (log10) ([14]; 20000 nM): -0.007 ± 0.0014
level (log10) ([14]; 60000 nM): 0.006 ± 0.024
level (log10) ([15]; 6700 nM): -0.051 ± 0.055
level (log10) ([15]; 20000 nM): -0.0445 ± 0.053
level (log10) ([15]; 60000 nM): -0.0305 ± 0.035
